What was measured:
[1] = biological target: Tyrosine-protein kinase JAK2 (Homo sapiens, UniProt O60674); experiment: (§1) JAK/TYK2 Assay: 10 mM test compound stock or 1 mM control compound stock (tofocitinib, ruxolitinib or staurosporine) in DMSO was diluted to 0.4 mM in DMSO. A 3-fold series dilution was then performed in DMSO to generate 10 different compound concentrations. The assay was carried out in 384-well white plate. 0.5 uL of 40× compound DMSO solution at different concentrations was mixed with 10 uL 2× enzyme prepared in reaction buffer (20 mM HEPES, 10 mM MgCl2, 0.01% Tween, 1 mM DTT, pH 7.5). 10 uL 2× substrate mixture prepared in reaction buffer was then added to start the reaction. A short spin was done to settle down all solutions to the bottom of the plate. Final concentrations of test compound in the reaction mixture were 10000, 3333, 1111, 370, 123, 41.2, 13.7, 4.57, 1.52 and 0.51 nM. Concentrations of control compound were ten times less. Enzymatic reaction was conducted at 25° C. for 1-2 hours. 10 uL of Kinase Glo Reagents was added to stop the reaction and generate the luminescent signal which was measured using Envision. Luminescence signal was inversely related to kinase activity. […] The mixture without any compound was the positive control. [ATP] [sub] timeJAK1 7.5 nM 2 uM 30 uM (IRS-1) 1 hrJAK2 0.8 nM 2 uM 4 uM (pEY) 1 hrJAK3 1.5 nM 2 uM 4 uM (pEY) 1 hrTYK2 9 nM 2 uM 30 uM (IRS-1) 1 hr
[2] = biological target: Non-receptor tyrosine-protein kinase TYK2 (Homo sapiens, UniProt P29597); experiment: as §1
[3] = biological target: T1, Tyrosine-protein kinase JAK3 (Homo sapiens, UniProt P52333); experiment: as §1
T1 sequence (P52333 whole entry): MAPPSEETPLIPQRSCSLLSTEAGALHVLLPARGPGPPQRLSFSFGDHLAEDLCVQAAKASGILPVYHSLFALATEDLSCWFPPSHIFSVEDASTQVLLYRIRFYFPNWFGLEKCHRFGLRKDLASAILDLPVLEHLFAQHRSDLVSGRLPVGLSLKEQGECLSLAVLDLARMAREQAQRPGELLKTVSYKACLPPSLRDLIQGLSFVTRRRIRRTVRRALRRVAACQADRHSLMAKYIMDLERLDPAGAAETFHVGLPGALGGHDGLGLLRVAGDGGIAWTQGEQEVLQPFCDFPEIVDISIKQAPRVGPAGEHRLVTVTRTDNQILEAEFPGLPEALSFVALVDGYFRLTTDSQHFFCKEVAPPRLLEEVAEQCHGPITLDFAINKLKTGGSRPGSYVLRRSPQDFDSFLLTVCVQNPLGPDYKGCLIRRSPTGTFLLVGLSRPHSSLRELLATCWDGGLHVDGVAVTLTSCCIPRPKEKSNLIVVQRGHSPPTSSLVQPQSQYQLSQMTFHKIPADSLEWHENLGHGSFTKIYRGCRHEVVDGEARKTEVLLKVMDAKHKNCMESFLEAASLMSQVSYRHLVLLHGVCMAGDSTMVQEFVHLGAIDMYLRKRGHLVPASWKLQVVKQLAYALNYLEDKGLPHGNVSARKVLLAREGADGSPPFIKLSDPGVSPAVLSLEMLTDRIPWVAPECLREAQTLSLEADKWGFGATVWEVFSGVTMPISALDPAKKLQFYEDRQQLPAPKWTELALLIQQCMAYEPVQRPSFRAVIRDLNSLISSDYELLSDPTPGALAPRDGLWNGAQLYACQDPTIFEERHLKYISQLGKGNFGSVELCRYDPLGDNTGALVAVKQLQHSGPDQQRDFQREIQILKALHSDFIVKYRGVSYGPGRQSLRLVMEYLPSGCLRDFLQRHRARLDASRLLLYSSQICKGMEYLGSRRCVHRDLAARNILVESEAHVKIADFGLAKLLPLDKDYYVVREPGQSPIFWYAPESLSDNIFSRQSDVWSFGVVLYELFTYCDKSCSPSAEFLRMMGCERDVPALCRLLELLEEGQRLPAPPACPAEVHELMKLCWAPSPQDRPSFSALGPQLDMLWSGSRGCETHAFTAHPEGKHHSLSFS

[4] = biological target: Tyrosine-protein kinase JAK1 (Homo sapiens, UniProt P23458); experiment: as §1

Measured: IC50

Sequence of Tyrosine-protein kinase JAK1 (P23458 whole entry): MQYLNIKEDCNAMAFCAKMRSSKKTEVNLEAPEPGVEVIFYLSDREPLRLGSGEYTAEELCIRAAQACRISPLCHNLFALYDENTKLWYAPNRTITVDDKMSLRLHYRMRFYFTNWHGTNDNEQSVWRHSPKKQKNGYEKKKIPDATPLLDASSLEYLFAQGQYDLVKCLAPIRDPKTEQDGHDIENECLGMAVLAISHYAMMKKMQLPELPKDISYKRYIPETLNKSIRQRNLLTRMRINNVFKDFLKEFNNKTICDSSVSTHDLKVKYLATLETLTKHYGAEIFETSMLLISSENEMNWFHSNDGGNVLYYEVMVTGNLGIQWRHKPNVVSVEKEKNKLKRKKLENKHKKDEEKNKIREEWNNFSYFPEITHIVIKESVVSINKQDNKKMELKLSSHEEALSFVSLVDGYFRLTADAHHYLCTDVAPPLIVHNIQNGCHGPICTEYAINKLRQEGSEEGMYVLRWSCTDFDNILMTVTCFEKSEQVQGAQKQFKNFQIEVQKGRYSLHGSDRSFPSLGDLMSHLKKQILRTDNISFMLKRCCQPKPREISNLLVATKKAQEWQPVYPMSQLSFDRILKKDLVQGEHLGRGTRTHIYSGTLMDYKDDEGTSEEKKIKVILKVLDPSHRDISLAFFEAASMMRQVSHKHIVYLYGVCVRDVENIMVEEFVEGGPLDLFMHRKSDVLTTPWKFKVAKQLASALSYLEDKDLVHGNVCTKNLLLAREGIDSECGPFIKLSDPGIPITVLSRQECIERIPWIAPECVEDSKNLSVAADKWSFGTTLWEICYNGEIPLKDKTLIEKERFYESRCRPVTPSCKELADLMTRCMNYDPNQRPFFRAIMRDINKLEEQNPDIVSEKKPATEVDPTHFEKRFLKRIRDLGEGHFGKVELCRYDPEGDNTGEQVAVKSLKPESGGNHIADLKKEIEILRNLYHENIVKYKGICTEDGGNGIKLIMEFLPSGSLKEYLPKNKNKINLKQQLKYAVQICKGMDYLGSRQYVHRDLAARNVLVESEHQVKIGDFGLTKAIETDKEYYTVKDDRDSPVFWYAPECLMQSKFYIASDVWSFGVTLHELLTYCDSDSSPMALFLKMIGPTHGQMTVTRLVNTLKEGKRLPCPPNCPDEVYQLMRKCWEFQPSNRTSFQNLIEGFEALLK
Sequence of Non-receptor tyrosine-protein kinase TYK2 (P29597 whole entry): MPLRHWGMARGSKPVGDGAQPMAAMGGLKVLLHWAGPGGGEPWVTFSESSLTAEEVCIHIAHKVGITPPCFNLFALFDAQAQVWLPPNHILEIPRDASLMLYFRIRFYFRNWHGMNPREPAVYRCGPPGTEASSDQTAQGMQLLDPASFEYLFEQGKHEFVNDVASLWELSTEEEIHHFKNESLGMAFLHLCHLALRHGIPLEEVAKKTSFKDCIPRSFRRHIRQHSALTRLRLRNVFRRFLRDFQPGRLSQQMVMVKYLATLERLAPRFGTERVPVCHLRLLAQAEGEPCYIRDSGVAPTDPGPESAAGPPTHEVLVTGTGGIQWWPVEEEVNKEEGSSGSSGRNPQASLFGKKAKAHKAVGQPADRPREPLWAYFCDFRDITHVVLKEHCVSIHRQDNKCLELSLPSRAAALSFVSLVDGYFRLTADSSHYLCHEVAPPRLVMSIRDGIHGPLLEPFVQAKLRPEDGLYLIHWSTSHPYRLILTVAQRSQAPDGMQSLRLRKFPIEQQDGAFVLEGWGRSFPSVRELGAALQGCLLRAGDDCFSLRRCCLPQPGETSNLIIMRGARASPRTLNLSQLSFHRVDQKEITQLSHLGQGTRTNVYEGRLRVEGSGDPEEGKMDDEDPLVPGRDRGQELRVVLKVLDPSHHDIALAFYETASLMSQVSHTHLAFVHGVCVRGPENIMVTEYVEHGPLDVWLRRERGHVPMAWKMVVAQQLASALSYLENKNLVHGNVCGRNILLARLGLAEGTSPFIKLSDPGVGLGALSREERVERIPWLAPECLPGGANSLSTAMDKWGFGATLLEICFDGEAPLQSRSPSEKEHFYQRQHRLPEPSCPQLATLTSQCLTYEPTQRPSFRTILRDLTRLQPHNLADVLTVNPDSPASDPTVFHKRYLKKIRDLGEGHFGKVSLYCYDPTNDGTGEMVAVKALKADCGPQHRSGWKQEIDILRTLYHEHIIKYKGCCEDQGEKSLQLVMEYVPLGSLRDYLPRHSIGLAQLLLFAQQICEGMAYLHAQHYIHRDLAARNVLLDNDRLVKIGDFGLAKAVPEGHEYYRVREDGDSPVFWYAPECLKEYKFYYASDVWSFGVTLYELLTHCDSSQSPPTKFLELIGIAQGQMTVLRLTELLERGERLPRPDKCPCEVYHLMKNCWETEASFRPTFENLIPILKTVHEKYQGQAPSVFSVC
Sequence of Tyrosine-protein kinase JAK2 (O60674 whole entry): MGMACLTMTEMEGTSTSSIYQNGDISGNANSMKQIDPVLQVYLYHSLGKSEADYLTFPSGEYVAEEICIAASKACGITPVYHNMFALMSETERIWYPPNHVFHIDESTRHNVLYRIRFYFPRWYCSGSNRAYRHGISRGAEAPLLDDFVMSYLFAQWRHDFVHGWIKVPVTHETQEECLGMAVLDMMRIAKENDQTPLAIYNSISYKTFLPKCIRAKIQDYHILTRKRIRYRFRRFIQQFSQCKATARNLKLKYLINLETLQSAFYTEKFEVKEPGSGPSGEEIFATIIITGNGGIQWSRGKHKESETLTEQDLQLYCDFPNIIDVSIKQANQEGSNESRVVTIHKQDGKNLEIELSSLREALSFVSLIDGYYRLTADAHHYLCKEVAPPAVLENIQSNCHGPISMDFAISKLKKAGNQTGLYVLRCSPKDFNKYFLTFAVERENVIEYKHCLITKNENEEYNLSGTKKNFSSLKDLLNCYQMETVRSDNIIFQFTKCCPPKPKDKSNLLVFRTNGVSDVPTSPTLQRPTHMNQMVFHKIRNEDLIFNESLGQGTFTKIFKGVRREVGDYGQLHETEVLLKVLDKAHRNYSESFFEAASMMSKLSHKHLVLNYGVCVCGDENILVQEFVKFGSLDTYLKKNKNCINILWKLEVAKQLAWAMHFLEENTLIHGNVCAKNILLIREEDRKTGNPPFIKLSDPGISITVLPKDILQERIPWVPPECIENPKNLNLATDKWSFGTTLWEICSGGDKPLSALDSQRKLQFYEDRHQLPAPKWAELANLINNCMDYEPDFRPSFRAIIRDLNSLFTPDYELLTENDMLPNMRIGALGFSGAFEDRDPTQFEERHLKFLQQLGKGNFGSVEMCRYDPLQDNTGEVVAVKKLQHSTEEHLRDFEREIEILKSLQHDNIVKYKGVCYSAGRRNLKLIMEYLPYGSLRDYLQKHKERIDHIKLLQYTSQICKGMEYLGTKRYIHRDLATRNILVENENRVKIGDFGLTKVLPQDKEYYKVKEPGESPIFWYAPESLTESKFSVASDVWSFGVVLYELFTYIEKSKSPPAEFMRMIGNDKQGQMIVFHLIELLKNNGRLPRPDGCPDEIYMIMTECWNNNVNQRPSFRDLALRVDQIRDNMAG

CCC(CC)Cn1ccc2cnc(Nc3cnn(CC(=O)O[C@@H]4C[C@@H](C(=O)OC)N(C)C4)c3)nc21
< 100 nM: [1] | [2] | [3] | [4]

Reference: ChEMBL document CHEMBL5729354, “Substituted pyrrolo[2,3-d]pyrimidines as JAK inhibitors” (2022)
